# Data reported in patent publication US11834453B2, “Substituted pyrimido[5,4-d]pyrimidines as HER2 inhibitors” (Array BioPharma Inc., priority 2020, dated 2023).
# What was measured:
# EGFR wild type (EGFR WT) = EGFR wild type (EGFR WT) (Homo sapiens (Human), UniProt P00533); assay: Cellular phosphorylation assay, EGF-stimulated EGFR phosphorylation in engineered NIH 3T3 cells, Phospho-EGFR DuoSet IC ELISA, Assay 5; format: cell-based
# Experimental: NIH 3T3 cells were engineered to express EGFR wild type (EGFR WT; Assay 5, no footnote) with constructs obtained from GenScript and grown in DMEM supplemented with 10% fetal bovine serum and 15 μg/ml blasticidin. Cells were plated in 96-well plates at 20,000 cells/well and allowed to attach overnight at 37° C./5% CO2. Serially diluted compounds were added to the plates for 1 hour at 37° C./5% CO2. EGFR WT cells were stimulated with 100 ng/ml rEGF for an additional 10 minutes at 37° C./5% CO2. After compound incubation, medium was removed from the cells, which were then lysed in 100 μL/well lysis buffer according to the manufacturer's protocol (R&D Systems, DYC1095, Human Phospho-EGFR DuoSet IC ELISA). Same protocol was followed to determine the total levels of phospho-EGFR by measuring the optical density of each well using a VersaMax microplate reader. Curves were then generated and IC50 values calculated.
# ErbB2 WT = ErbB2 WT (Homo sapiens (Human), UniProt P04626); assay: ErbB enzyme assay (CisBio HTRF KinEASE-TK), Assay 2; format: biochemical
# Chain of ErbB2 WT (P04626 23-1255): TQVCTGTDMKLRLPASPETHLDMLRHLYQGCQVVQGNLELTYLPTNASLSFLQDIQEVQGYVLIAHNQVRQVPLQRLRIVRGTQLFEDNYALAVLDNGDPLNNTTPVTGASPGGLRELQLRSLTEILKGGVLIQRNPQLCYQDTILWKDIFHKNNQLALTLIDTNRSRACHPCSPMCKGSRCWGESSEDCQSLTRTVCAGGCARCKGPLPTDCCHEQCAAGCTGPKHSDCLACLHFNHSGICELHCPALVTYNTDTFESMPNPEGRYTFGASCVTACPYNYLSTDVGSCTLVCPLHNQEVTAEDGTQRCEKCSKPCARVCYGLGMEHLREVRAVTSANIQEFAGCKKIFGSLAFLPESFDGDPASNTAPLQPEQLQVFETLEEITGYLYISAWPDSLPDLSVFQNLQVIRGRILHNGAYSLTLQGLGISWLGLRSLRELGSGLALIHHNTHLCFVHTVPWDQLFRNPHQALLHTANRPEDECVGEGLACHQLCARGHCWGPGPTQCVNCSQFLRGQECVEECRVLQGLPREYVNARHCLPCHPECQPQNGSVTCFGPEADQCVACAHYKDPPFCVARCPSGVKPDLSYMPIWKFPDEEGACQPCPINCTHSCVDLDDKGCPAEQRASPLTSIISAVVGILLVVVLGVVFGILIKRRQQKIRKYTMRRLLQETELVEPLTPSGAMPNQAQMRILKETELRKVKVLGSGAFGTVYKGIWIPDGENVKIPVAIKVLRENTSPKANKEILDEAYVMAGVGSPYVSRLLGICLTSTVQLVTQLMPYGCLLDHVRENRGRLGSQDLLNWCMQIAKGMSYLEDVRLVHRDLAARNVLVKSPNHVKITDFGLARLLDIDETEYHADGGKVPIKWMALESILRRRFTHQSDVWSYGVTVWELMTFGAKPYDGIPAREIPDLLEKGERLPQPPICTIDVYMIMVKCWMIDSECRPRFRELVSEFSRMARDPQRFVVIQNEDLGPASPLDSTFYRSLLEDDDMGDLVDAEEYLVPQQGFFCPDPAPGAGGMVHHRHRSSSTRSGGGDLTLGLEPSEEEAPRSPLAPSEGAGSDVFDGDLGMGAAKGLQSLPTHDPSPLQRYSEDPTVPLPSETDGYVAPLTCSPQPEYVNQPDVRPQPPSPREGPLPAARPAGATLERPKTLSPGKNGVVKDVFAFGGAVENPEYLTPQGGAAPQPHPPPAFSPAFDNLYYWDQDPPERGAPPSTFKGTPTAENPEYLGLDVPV
# Outline: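 ErbB2 phosphorylates 250 nM biotin-TK substrate at 1 mM ATP in 25 mM HEPES pH 7.4, 10 mM MgCl2, 0.01% Triton X-100 and 2% DMSO, for 30 min at 22 °C. Product is detected by HTRF with Sa-XL665 and TK-Ab-Cryptate. Percent of control is set by DMSO-only wells and pre-quenched wells.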
# EGFR = EGFR (Homo sapiens (Human), UniProt P00533); assay: ErbB enzyme assay (CisBio HTRF KinEASE-TK), Assay 3; format: biochemical
# Chain of EGFR (P00533 25-1210): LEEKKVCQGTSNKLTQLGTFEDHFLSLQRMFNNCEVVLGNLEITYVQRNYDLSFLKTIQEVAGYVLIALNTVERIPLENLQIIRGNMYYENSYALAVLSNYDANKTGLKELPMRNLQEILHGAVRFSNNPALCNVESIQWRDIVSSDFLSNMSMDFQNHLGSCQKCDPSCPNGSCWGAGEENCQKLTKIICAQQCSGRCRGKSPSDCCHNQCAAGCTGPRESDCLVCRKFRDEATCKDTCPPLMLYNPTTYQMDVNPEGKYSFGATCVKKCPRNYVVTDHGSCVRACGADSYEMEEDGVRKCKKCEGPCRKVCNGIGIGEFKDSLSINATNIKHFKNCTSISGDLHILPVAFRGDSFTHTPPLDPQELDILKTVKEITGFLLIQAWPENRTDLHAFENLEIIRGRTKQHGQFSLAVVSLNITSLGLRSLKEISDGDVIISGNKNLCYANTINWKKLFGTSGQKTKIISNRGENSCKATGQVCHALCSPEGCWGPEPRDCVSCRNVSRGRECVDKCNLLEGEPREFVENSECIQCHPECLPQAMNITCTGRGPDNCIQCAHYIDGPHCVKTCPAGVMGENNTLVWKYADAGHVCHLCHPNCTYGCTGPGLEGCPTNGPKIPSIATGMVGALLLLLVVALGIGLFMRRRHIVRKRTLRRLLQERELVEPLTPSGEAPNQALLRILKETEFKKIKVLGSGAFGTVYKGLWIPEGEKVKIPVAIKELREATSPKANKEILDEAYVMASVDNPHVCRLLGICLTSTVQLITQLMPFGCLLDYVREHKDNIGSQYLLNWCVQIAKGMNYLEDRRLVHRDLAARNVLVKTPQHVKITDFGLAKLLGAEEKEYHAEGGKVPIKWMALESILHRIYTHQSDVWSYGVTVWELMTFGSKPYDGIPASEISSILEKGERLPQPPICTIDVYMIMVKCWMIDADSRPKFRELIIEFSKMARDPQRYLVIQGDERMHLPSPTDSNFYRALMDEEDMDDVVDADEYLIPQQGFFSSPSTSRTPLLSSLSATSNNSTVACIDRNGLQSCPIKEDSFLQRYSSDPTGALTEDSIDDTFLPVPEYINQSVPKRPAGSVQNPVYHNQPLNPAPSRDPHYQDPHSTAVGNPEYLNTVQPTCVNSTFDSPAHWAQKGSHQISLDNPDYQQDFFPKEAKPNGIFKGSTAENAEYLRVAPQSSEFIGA
# Outline: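 HTRF KinEASE-TK assay: kinase with 250 nM biotinylated TK-substrate and 1 mM ATP in 25 mM HEPES pH 7.4, 10 mM MgCl2, 0.01% Triton X-100, 2% DMSO, 30 min at 22 °C. Quenched with Sa-XL665/TK-Ab-Cryptate, read after 1 h. IC50 from 4-parameter fit of percent of control.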
# [1] = target: ErbB2 with Exon 20 YVMA insertion (HER2-YVMA) (Homo sapiens (Human), UniProt P04626, INS775YVMA); assay: Cellular phosphorylation assay, constitutive ErbB2 phosphorylation (Y1196) in engineered NIH 3T3 cells, Assay 4; format: cell-based
# Outline: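 Engineered NIH 3T3 cells expressing HER2-YVMA treated with compounds 1 h at 37 °C, then formaldehyde-fixed and methanol-permeabilized. pErbB2 Y1196 detected by in-cell infrared immunofluorescence, normalized to GAPDH. IC50 from the normalized curves.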
# [2] = target: ErbB2 insYVMA (HER2-YVMA, SEQ ID NO: 2) (Homo sapiens, UniProt P04626, INS775YVMA/P1170A); assay: biochemical; conditions: ErbB2 insYVMA enzyme assay; read-out: Assay 1 IC50
# Chain of ErbB2 insYVMA (HER2-YVMA, SEQ ID NO: 2) (P04626 with tags, fused parts or gaps INS775YVMA/P1170A limits assumed): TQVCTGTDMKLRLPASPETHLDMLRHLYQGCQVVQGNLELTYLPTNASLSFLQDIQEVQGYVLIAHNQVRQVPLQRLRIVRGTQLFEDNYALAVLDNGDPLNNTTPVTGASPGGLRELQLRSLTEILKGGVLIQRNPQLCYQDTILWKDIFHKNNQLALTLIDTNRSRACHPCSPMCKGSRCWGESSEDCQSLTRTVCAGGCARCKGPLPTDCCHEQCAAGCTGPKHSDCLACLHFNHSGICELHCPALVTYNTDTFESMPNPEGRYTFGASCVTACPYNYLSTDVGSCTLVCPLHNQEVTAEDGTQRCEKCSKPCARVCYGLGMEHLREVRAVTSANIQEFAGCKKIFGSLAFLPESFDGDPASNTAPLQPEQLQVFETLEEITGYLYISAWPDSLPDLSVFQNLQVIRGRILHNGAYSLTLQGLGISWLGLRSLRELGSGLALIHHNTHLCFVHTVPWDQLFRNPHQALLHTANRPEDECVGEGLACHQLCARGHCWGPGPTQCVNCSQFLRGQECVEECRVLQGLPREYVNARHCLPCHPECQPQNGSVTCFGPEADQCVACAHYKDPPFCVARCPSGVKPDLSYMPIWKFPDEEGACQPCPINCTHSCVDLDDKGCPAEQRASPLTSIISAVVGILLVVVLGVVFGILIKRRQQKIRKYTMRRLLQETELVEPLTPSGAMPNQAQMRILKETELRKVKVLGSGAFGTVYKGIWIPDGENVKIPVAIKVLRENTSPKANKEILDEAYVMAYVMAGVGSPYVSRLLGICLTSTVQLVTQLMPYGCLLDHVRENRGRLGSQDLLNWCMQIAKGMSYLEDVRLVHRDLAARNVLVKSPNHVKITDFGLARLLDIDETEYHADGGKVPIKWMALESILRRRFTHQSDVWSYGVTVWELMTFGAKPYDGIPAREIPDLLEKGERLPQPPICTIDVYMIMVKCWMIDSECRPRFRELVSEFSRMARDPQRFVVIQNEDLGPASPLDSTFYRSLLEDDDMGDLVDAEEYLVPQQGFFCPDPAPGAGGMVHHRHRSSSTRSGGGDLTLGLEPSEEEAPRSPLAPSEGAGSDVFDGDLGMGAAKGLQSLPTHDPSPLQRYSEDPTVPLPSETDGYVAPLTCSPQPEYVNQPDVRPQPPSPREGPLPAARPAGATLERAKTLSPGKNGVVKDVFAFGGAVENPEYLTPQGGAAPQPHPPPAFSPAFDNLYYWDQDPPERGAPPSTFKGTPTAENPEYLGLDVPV
# Chain of EGFR wild type (EGFR WT) (P00533 25-1210): as the sequence (P00533 25-1210) above
Compound,IC50 (EGFR wild type (EGFR WT)),IC50 (ErbB2 WT),IC50 (EGFR),IC50 [1],IC50 [2]
Cc1cc(Nc2ncnc3cnc(N4CCC(F)(F)[C@@H](O)C4)nc23)ccc1Oc1ccc2c(c1)ncn2C [Example 460],≥ 5000 nM,89.7 nM,≥ 10000 nM,88 nM,59.1 nM
Cc1cc(Nc2ncnc3cnc(N(CC(F)F)CC(F)F)nc23)ccc1Oc1ccc2c(c1)ncn2C [Example 344],≥ 5000 nM,675 nM,≥ 10000 nM,128 nM,161 nM
Cc1cc(Nc2ncnc3cnc(O[C@H]4CCN(C)C[C@H]4F)nc23)ccc1Oc1ccc2c(c1)ncn2C [Example 286],≥ 5000 nM,468 nM,≥ 10000 nM,81.4 nM,98.1 nM
Cc1c(Oc2ccn3ncnc3c2)ccc(Nc2ncnc3cnc(N4C[C@@H](O)C(F)(F)C4)nc23)c1F [Example 316],≥ 5000 nM,111 nM,5040 nM,1320 nM,52.2 nM
Cc1cc(Nc2ncnc3cnc(N4CC[C@H]4C(C)(C)O)nc23)ccc1Oc1ccn2ncnc2c1 [Example 370],≥ 5000 nM,129 nM,≥ 10000 nM,2500 nM,57.9 nM
Cn1cnc2cc(Oc3ccc(Nc4ncnc5cnc(N6CC[C@@H](C#N)C6)nc45)cc3Cl)ccc21 [Example 444],≥ 5000 nM,52.6 nM,≥ 10000 nM,41.7 nM,24.3 nM
Cn1cnc2cc(Oc3ccc(Nc4ncnc5cnc(N6C[C@@H]7[C@@H](C#N)[C@@H]7C6)nc45)cc3Cl)ccc21 [Example 393],≥ 5000 nM,237 nM,≥ 10000 nM,43.2 nM,63.3 nM
Clc1cc(Nc2ncnc3cnc(N4CC[C@@]5(CCOC5)C4)nc23)ccc1Oc1ccn2ncnc2c1 [Example 356],≥ 5000 nM,92.8 nM,≥ 10000 nM,270 nM,36.1 nM
Cc1cc(Nc2ncnc3cnc(N(C)CC4(O)CC4)nc23)ccc1Oc1ccn2ncnc2c1 [Example 385],≥ 5000 nM,40 nM,5150 nM,183 nM,18.5 nM
Cc1cc(Nc2ncnc3cnc(N(C)CC(C)(C)O)nc23)c(F)cc1Oc1ccc2c(c1)ncn2C [Example 491],≥ 5000 nM,36.9 nM,≥ 10000 nM,78.6 nM,27.8 nM
CN(CCC(C)(C)O)c1ncc2ncnc(Nc3ccc(Oc4ccc5c(c4)ncn5C)c(Cl)c3)c2n1 [Example 479],≥ 5000 nM,24.4 nM,2210 nM,12.9 nM,26.5 nM
CN(CC1(O)CCC1)c1ncc2ncnc(Nc3ccc(Oc4ccn5ncnc5c4)c(Cl)c3)c2n1 [Example 329],≥ 5000 nM,37.7 nM,5060 nM,85.2 nM,19.8 nM
Cc1cc(Nc2ncnc3cnc(N4CC[C@@H](C#N)C4)nc23)ccc1Oc1ccn2ncnc2c1 [Example 404],≥ 5000 nM,37 nM,7550 nM,182 nM,22.8 nM
Cc1c(Oc2ccn3ncnc3c2)ccc(Nc2ncnc3cnc(N4CC[C@H](O)C4)nc23)c1F [Example 311],≥ 5000 nM,76.3 nM,≥ 10000 nM,3330 nM,75.3 nM
"Cc1cc(Nc2ncnc3cnc(N4CCC4)nc23)ccc1Oc1ccc2scnc2c1 [Example 44, 6-(azetidin-1-yl)-N-(4-(benzo[d]thiazol-5-yloxy)-3-methylphenyl)pyrimido[5,4-d]pyrimidin-4-amine 2,2,2-trifluoroacetate]",≥ 5000 nM,315 nM,3310 nM,70.6 nM,103 nM
